From patent publication US12703698B2, “Inhibitors of interleukin-1 receptor-associated kinases 1 and 4” (The University of Rochester, priority 2020, dated 2026)

Tests used:
THP-1 cells = assay: Colony formation of THP-1 cells in vitro; format: cell-based, human; conditions: FIGS. 4A-4C
Source text: FIGS. 4A, 4B and 4C show the effect of MCC950 (reference), UR241-1, and UR241-2 on the colony formation potential of THP-1 cells in vitro.

MDS-L cells = assay: Colony formation of MDS-L cells in vitro; format: cell-based; conditions: for colony formation of MDS-L cells: FIGS. 7A-7C; for colony formation potential of MDS-L cells: FIGS. 6A-6B
Source text: FIGS. 6A and 6B show the effect of UR241-1 and UR241-2 on the colony formation potential of MDS-L cells in vitro.

murine MLL-AF9 leukemia = assay: Colony forming activity in methylcellulose culture, MLL-AF9 leukemia; format: cell-based
[1] = tested on: IL1b signaling events in THP-1 cells; assay: Western blot of IL1b signaling events in THP-1 cells; format: cell-based, human; conditions: THP-1 cells at 10 and 30 minutes; hIL-1β 10 ng/mL, UR241-2 4 μM, WB 30 μg/lane; FIG. 1E
Description: Whole cell lysates of THP1 treated with vehicle, hIL-1B (10 ng/mL), UR241-1 (10 μM) and UR241-2 (4 μM) for 10 minutes and 30 minutes. 30 μg proteins were electrophoresed and probed with phospho-/native p65, phospho-p38, pAKT, and GAPDH.

| SMILES | colony formation potential of THP-1 cells (THP-1 cells) | colony formation of MDS-L cells (MDS-L cells) | colony formation potential of MDS-L cells (MDS-L cells) | inhibition of colony forming activity (murine MLL-AF9 leukemia; UR241-2 4 uM with MCC950 100 nM, FIG. 1F) | inhibition of colony forming activity (murine MLL-AF9 leukemia; UR241-2 4 uM without MCC950, FIG. 1F) | inhibition of IL1b signaling events [1] |
| --- | --- | --- | --- | --- | --- | --- |
| CC(C)(O)c1coc(S(=O)(=O)NC(=O)Nc2c3c(cc4c2CCC4)CCC3)c1 [MCC950, reference compound] | suppressed the colonies formed by THP-1 cells dose-dependently | inhibited colony formation of MDS-L cells in vitro, dose-dependently |  |  |  |  |
| CC[C@@H]1[C@H](F)C(=O)N[C@@H]1COc1nccc2cc(C(N)=O)c(OC)cc12 [PF06650833, reference compound] |  | inhibited colony formation of MDS-L cells in vitro, dose-dependently |  |  |  |  |
| COc1cc(N2CCS(=O)(=O)CC2)ccc1NC(=O)c1cccc(-c2cc[nH]n2)c1 [UR241-1] | suppressed the colonies formed by THP-1 cells dose-dependently |  | suppressed the colonies formed by MDS-L cells dose dependently |  |  |  |
| COc1cc(N2CCS(=O)(=O)CC2)ccc1NC(=O)c1cccc(-c2cc[nH]n2)n1 [UR241-2] | suppressed the colonies formed by THP-1 cells dose-dependently | inhibited colony formation of MDS-L cells in vitro, dose-dependently | suppressed the colonies formed by MDS-L cells dose dependently | inhibition of colony forming activity | inhibition of colony forming activity | inhibition |
